Tested on: porcine kidney transplant, ischemia reperfusion injury
Assay: Porcine allogeneic survival transplantation model (SM)
Assay type: in vivo, pig
Details: for IFNγ level / IL-1α level / IL-1β level / IL-2 level / IL-4 level / IL-6 level / IL-10 level / IL-12 level / IL-18 level: vs untreated control kidneys
Method: During and after surgery, systemic blood was collected for up to 4 days and analyzed for creatinine, sodium, potassium and phosphate (Section for Clinical Chemistry, Uppsala University Hospital).
Multiplex protein analyses using multiplex Luminex xMAP Technology (Millipore Corporation, Billerica, MA, USA) were performed using a porcine specific kit for 12 cytokines/chemokines: Interferon-gamma (INFγ), Interleukins IL-1b, IL-2, IL-1a, IL-1RA, IL-4, IL-6, IL-10, IL-18, IL-8, IL-12, and TNF. Plasma was incubated with agent-specific-coloured magnetic beads, thereafter with detection antibodies and streptavidin-phycoerythrin (Millipore Corporation). Plates were measured using a MAGPIX instrument (Luminex Corporation, Austin, TX, USA). Raw data [median fluorescence intensity (MFI)] was translated into protein concentration (ng/ml) using a standard curve.
These studies were approved by the Ethics Committee for Animal Experimentation, Uppsala, Sweden, Dnr C123/14. For each of these studies (SM and CLSM) five donor pigs and 10 recipient pigs of both sexes were used. All pigs were certified SPF pigs (Yorkshire×Hampshire) and bred at Lövsta University herd, SLU, Sweden. At arrival to SLU the pigs were 8 weeks old.
For the SM study, the pigs were selected after typing for Swine Leucocyte Antigen (SLA) class 1 in the following manner: the donor pigs were obtained from two litters and not related to any of the recipients. The recipient pigs were siblings, matched in pairs according to SLA class 1 (see below). For the CLSM study, all recipient pigs were siblings and not related to the donors, but these the pigs were not SLA-typed.
SM study: the kidneys were retrieved en bloc using the same procedure as in the ANSM study. Also here, the kidneys were exposed to an initial warm ischemia of less than 5 minutes. […] Post preservation, the kidneys were randomized to receive either PEG-phospholipid (15 mL, 2 mg/mL) or HTK solution at +4° C. by injection through the renal artery after clamping of the renal vein. During a 40-60 min incubation, the renal artery and vein were maintained clamped. The SM study comprised 6 kidneys treated with PEG-phospholipid and 4 control kidneys.
The recipient pigs underwent allogeneic single kidney transplantation. Through a 15-20 cm abdominal midline incision, the iliac vessels in the right iliac fossa were identified and carefully mobilized. The distal segment of the vena cava as well as the iliac artery (from its emergence from the aorta) were mobilized, sealing the surrounding lymphoid tissue. The renal graft was thereafter placed in the right iliac fossa in the proximity of the iliac vessels. The renal vein and artery were trimmed, and subsequently anastomosed in an end-to-side fashion to the recipient's right iliac artery and distal vena cava using a polypropylene 7/0 running suture (PROLENE®, Ethicon, US). The ureters were implanted by extravesical ureteroneocystostomy to the top of the bladder by 6-0 polydioxanone suture (PDS®, Ethicon, US). Thereafter, bilateral nephrectomy of the native kidneys was performed. The midline incision was closed by running a 2/0 polyglactin (VICRYL®, Ethicon, US) fascia suture and skin clips. No anticoagulants were given to the recipient. After the inguinal transplantation was completed, urine was collected directly from the bladder by cystocentesis, showing that all of the transplanted kidneys had started to produce urine soon after reperfusion. By using a urine stick the sample was analyzed for proteinurea and hematuria. The mean duration of the surgery was 2.5 hours (1.75-3.25 hours).
During and after transplantation, EDTA blood was collected from the local renal vein at 0, 15, 30 and 60 min after reperfusion, and systemic blood samples were obtained at 1, 2, 3, and 4 days after surgery. […]

[1] = 60 min following transplantation
[2] = 4 days following transplantation
[3] = kidney vein, 5 min, in most cases
[4] = up to 4 days post-transplantation

N-(methylpolyoxyethylene oxycarbonyl)-1,2-dipalmitoyl-sn-glycero-3-phosphoethanolamine [PEG-phospholipid]
binding of C3b in renal biopsies (5 min and necropsy day 4): lower binding | IFNγ level [1]: not any significant difference | IL-1α level [1]: not any significant difference | IL-1β level [1]: not any significant difference | IL-2 level [1]: not any significant difference | IL-4 level [1]: not any significant difference | IL-6 level [1]: not any significant difference | IL-10 level [1]: not any significant difference | IL-12 level [1]: not any significant difference | IL-18 level [1]: not any significant difference | IFNγ level [2]: significantly lower levels | IL-1α level [2]: significantly lower levels | IL-1β level [2]: significantly lower levels | IL-2 level [2]: significantly lower levels | IL-4 level [2]: significantly lower levels | IL-6 level [2]: significantly lower levels | IL-10 level [2]: significantly lower levels | IL-12 level [2]: significantly lower levels | IL-18 level [2]: significantly lower levels | IL-1RA protein level (after 96 hours): unaffected | IL-8 protein level (after 96 hours): unaffected | IL-1a protein level [3]: suppressed | IL-12 protein level [3]: suppressed | creatinine levels post-transplantation (recipients' blood, 24-96 hours, vs control grafts): significantly lower | C3a in blood samples [4]: substantially lower | TAT in blood samples [4]: substantially lower | sC5b-9 in blood samples [4]: substantially lower
